Experimental data: patent US8946195B2, “Bicyclic methyl amine derivatives as sphingosine-1 phosphate receptors modulators” (Allergan, Inc., priority 2011, dated 2015)

Each molecule was assayed against T1, human S1P1 receptor (Homo sapiens, UniProt P21453) (assay: GTP γ35S binding assay for S1P1 activity). Conditions: membranes of cells stably expressing the S1P1 receptor, agonist potency.
T1 construct: expressed in transfected cells; membranes used
Format: biochemical
Protocol: Compounds were synthesized and tested for S1P1 activity using the GTP γ^35S binding assay. These compounds may be assessed for their ability to activate or block activation of the human S1P1 receptor in cells stably expressing the S1P1 receptor.
GTP γ35S binding was measured in the medium containing (mM) HEPES 25, pH 7.4, MgCl2 10, NaCl 100, dithitothreitol dithitothreitol 0.5, digitonin 0.003%, 0.2 nM GTP γ35S, and 5 μg membrane protein in a volume of 150 μl. Test compounds were included in the concentration range from 0.08 to 5,000 nM unless indicated otherwise. Membranes were incubated with 100 μM 5′-adenylylimidodiphosphate adenylylimmidodiphosphate for 30 min, and subsequently with 10 μM GDP for 10 min on ice. Drug solutions and membrane were mixed, and then reactions were initiated by adding GTP γ35S and continued for 30 min at 25° C. Reaction mixtures were filtered over Whatman GF/B filters under vacuum, and washed three times with 3 mL of ice-cold buffer (HEPES 25, pH7.4, MgCl2 10 and NaCl 100). Filters were dried and mixed with scintillant, and counted for 35S activity using a β-counter. Agonist-induced GTP γ35S binding was obtained by subtracting that in the absence of agonist. Binding data were analyzed using a non-linear regression method. In case of antagonist assay, the reaction mixture contained 10 nM […] in the presence of test antagonist at concentrations ranging from 0.08 to 5000 nM.

T1 sequence (P21453 whole entry): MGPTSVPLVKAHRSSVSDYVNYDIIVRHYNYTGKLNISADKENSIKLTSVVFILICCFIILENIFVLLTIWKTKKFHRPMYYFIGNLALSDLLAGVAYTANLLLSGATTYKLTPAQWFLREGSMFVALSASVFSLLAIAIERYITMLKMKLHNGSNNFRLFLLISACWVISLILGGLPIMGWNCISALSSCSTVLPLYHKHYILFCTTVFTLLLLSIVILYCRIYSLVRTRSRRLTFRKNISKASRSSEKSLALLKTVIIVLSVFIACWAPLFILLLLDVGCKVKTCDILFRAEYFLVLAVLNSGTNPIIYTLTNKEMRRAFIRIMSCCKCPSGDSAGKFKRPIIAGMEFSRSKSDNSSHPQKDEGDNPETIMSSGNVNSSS

Structure (SMILES) | EC50
CCCCCCc1ccc(-c2ccc(CNCCCP(=O)(O)O)c3occc23)cc1 [Compound 2, [3-({[4-(4-hexylphenyl)-1-benzofuran-7-yl]methyl}amino)propyl]phosphonic acid] | 0.17 µM
CCCCCCc1ccc(-c2ccc(CNCCCP(=O)(O)O)c3ccoc23)cc1 [Compound 3, [3-({[7-(4-hexylphenyl)-1-benzofuran-4-yl]methyl}amino)propyl]phosphonic acid] | 0.0444 µM
CCCCCCc1ccc(-c2ccc(CNCCCP(=O)(O)O)c3c2CCC3)cc1 [Compound 1, [3-({[7-(4-hexylphenyl)-2,3-dihydro-1H-inden-4-yl]methyl}amino)propyl]phosphonic acid] | 0.0371 µM
